Literature values, collected in US20230233697A1, “CYTOTOXIC BENZODIAZEPINE DERIVATIVES” (priority 2014, published 2023).

Conditions: Phase I clinical evaluation; cited from earlier work

C=C1C[C@H]2C=Nc3cc(OCCCOc4cc5c(cc4OC)C(=O)N4CC(=C)C[C@H]4C=N5)c(OC)cc3C(=O)N2C1 [SJG-136]
maximum tolerated dose: 45 μg/m^2
